Earlier results in article PMC3018413, “Uptake and Metabolism of the Novel Peptide Angiotensin-(1-12) by Neonatal Cardiac Myocytes” (PLoS ONE, 2011).

Legend:
[1] = test system: Ang II formation from Ang-(1–12); conditions: ref Prosser et al. [29] as printed
Excerpt: In the controlled environment of a cell culture system, neonatal cardiac myocytes of SHR and WKY metabolized ^125I-Ang-(1–12) into Ang I, leading to sequential production of Ang II, Ang-(1–7), and other smaller angiotensin fragments. […] This new observation is in ...

[2] = test system: human renal tubular epithelial cells

| Molecule | inhibition of Ang II formation from Ang-(1–12) [1] | bound angiotensinogen that could be displaced [2] |
| --- | --- | --- |
| CC(C)C[C@H](NC(=O)[C@@H](NC(=O)N[C@@H](Cc1ccccc1)C(=O)O)[C@@H]1CCN=C(N)N1)C(=O)N[C@H](C=O)Cc1ccccc1 [chymostatin] | completely inhibited | – |
| angiotensinogen: angiotensinogen protein bound to human renal tubular epithelial cells, cited study (protein, UniProt P01019 25-476, looked up) Angiotensinogen: DRVYIHPFHLVIHNESTCEQLAKANAGKPKDPTFIPAPIQAKTSPVDEKALQDQLVLVAAKLDTEDKLRAAMVGMLANFLGFRIYGMHSELWGVVHGATVLSPTAVFGTLASLYLGALDHTADRLQAILGVPWKDKNCTSRLDAHKVLSALQAVQGLLVAQGRADSQAQLLLSTVVGVFTAPGLHLKQPFVQGLALYTPVVLPRSLDFTELDVAAEKIDRFMQAVTGWKTGCSLMGASVDSTLAFNTYVHFQGKMKGFSLLAEPQEFWVDNSTSVSVPMLSGMGTFQHWSDIQDNFSVTQVPFTESACLLLIQPHYASDLDKVEGLTFQQNSLNWMKKLSPRTIHLTMPQLVLQGSYDLQDLLAQAELPAILHTELNLQKLSNDRIRVGEVLNSIFFELEADEREPTESTQQLNKPEVLEVTLNRPFLFAVYDQSATALHFLGRVANPLSTA | – | ≤ 50% |
